{"source": "ChEMBL document CHEMBL2150879", "about": "“Novel indolethylbenzamides for the treatment of tauopathies: patent highlight” (ACS Med Chem Lett, 2012)", "data": [{"assay": "Inhibition of Tau P301L mutant-mediated cytotoxicity in human M17 cells by LDH assay", "format": "cell-based", "units": {"EC50": "nM"}, "values": [{"smiles": "O=C(NCCc1c[nH]c2ccc(F)cc12)c1ccc(Cn2ccnc2)cc1", "EC50": 486}, {"smiles": "O=C(NCCc1c[nH]c2ccc(Cl)cc12)c1ccc(Cc2cccc(Cl)c2)cc1", "EC50": 7}, {"smiles": "N#Cc1cccc(Cc2ccc(C(=O)NCCc3c[nH]c4ccc(Cl)cc34)cc2)c1", "EC50": 14}, {"smiles": "N#Cc1ccc(Cc2ccc(C(=O)NCCc3c[nH]c4ccc(Cl)cc34)cc2)cc1", "EC50": 16}, {"smiles": "O=C(NCCc1c[nH]c2ccc(Cl)cc12)c1ccc(Cc2cccc(F)c2)cc1", "EC50": 13}, {"smiles": "O=C(NCCc1c[nH]c2ccc(Cl)cc12)c1cccc(Nc2ccccc2)c1", "EC50": 94}, {"smiles": "O=C(NCCc1c[nH]c2ccc(Cl)cc12)c1cccc(Cc2cncc(F)c2)c1", "EC50": 90}, {"smiles": "O=C(NCCc1c[nH]c2ccc(Cl)cc12)c1cccc(Cc2ccccc2)c1", "EC50": 78}, {"smiles": "COc1ccc(Cc2ccc(C(=O)NCCc3c[nH]c4ccc(Cl)cc34)cc2)cc1", "EC50": 147}]}]}
